Data reported in publication PMC6368403, “Identification of a bilirubin receptor that may mediate a component of cholestatic itch” (eLife, 2019).
Where “and” joins values, the source holds several entries; their conditions need not be identical. Equal values may be shown once. Square brackets hold non-standard residues; d marks the D form. Peptide text beside a SMILES is read from it. * marks the point of attachment. Boc = CC(C)(C)OC(=O)*; OBn = c1ccc(CO*)cc1; For = O=C*

How the values were obtained:
mice = assay: Plasma injection assay: scratching bouts after injection of mouse or human plasma; assay type: in vivo; settings: plasma treated with FeCl3 (vs NT), one value per animal
From the text: Plasma from patients suffering from hyperbilirubinemia, specifically cholestasis, was isolated under a protocol approved by the Institutional Review Board at the Johns Hopkins University School of Medicine (Study number: IRB00154650). […] Both cholestatic and control plasma were isolated under protocols approved by the Institutional Review Board at the Johns Hopkins University School of Medicine (Cholestasis Study number: IRB00154650; Control study number: NA_00013177, the Johns Hopkins Department of Dermatology Patient Database and Tissue Bank). Whole blood was collected into PAXgene tubes (PreAnalytiX 761115) and centrifuged for 5 min at 300 g. Plasma was then collected, aliquoted, and stored at −20°C until experimentation. […] All applicable behavioral tests were performed and analysed with the experimenter blind to genotype. […] There were no significant differences in itch between male and female mice. […] On the day before the experiment, animals were placed in the test chamber for 30 min before being subjected to a series of three mock injections with 5 min break periods in between. On the day of the experiment, animals were first allowed to acclimatize to the test chamber for 10 min before injection. […] A bout of scratching was defined as a continuous scratching movement with either hindpaw directed at the area of the injection site. In the cheek injection model, a wipe was defined as a single forepaw stroking the site of the injection. Use of both forepaws on the face or cheek was considered as grooming behavior. […] For H1R block, 30 mg/kg of cetirizine HCl (pH 7.4) was given intraperitoneally thirty minutes prior to injection of bilirubin. Licking behavior was quantified in seconds and identified as the licking of the toes or footpad of the hind paw site of injection that was neither preceded nor followed by licking of any other portion of the body.

[1] = cited from earlier work
[2] = mouse, in vivo, 1 mg/kg
[3] = molecular target: MRGPRA1, GFP-tagged (mouse) (UniProt Q91WW5)
Chain of MRGPRA1, GFP-tagged (mouse) (Q91WW5 whole entry): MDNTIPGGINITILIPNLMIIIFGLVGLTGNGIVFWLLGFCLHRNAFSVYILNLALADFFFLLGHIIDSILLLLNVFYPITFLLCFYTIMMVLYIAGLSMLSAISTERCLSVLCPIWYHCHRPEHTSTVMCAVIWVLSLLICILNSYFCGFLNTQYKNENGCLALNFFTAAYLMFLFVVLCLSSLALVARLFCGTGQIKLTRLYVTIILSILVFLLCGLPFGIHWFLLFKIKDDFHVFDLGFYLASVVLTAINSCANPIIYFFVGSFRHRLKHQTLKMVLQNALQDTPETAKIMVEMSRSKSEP

[Cl][Fe]([Cl])[Cl] [FeCl3]
Scratching bouts after injection of plasma (mice; NT values equal cholestasis WT c1 of sheet Fig 7 - CD): 75 and 132 and 54 and 111 and 173 and 58 and 34
Scratching bouts after injection of plasma (mice; NT/FeCl3 pair, NT values equal cholestasis WT c7 of sheet Fig 7 - CD): 117 and 53 and 60 and 54 and 67
Scratching bouts after injection of plasma (mice; NT/FeCl3 pair, plasma source not given): 45 and 53 and 51 and 41 and 34

CC(C)(C)OC(=O)N[C@@H](CCC(N)=O)C(=O)N[C@H](Cc1cn(C=O)c2ccccc12)C(=O)N[C@@H](Cc1ccccc1)C(=O)OCc1ccccc1 [QWF, BOC-GLN-D-(FORMYL)TRP-PHE-BENZYLESTER] (Boc-Gln-[dW](For)-Phe-OBn)
t1/2 in plasma [1]: 1.17 h
Plasma levels of total bilirubin, AST, ALT, ALP [2]: did not change plasma levels of total bilirubin, AST, ALT, or ALP

QWF (BOC-GLN-D-(FORMYL)TRP-PHE-BENZYLESTER) (peptide)
inhibition of the bilirubin-induced Ca2+ signal in MRGPRA1-expressing HEK cells (200 µM bilirubin kept in competition with varied doses of QWF) [3]: 2.9 µM
